Experimental findings from patent EP4699605A1, “USE OF NOVEL COMPOUND FOR TREATING INTRACTABLE DISEASES” (YJ Cerapeutics Inc., priority 2023, dated 2024) are described below.

One data set has as its system JMJD3. In words: Signaling pathway analysis in SNI model (Western blot): JMJD3 expression and activation. Particulars: 4 weeks after nerve injury. The class given is in vivo, Sprague-Dawley rats. The procedure: (§1) To determine through which signaling pathway YJ102 inhibited a neuroinflammatory response, there was analyzed increased expression and activation of histone demethylase JMJD3 and expression changes of factors associated with JAK/STAT3 pathway, mTOR pathway, and TRPM7-mediated pathway, which were known as important regulatory mechanisms and epigenetic regulators mediating the neuroinflammatory response, in the tissues of the SNI animal model 4 weeks after nerve injury.

A further data set relates to JAK/STAT3 pathway. In words: Signaling pathway analysis in SNI model (Western blot): JAK/STAT3. In kind it is in vivo, Sprague-Dawley rats. Particulars: 4 weeks after nerve injury. As to the method: as §1
A further data set concerns mTOR pathway. In words: Signaling pathway analysis in SNI model (Western blot): mTOR. The following applies: 4 weeks after nerve injury. The class given is in vivo, Sprague-Dawley rats. The procedure:
as §1

In a further data set the test system is Raw 264.7 cell line. In words: Inflammatory factor mRNA in LPS-treated macrophage cell line (RT-PCR). In kind it is cell-based. The following applies: LPS treatment. The procedure:
(§2) In order to determine whether YJ102 affected the production of proNGF as a ligand of p75, the expression of proNGF in the bladder was confirmed by RT-PCR, Western blot analysis, and immunofluorescence staining. In addition, for further verification, a macrophage cell line Raw 264.7 (Korea Cell Line Bank, Seoul, Korea) was stimulated with 1 µg/ml of LPS, and the effect of YJ102 on the production of proNGF was investigated. At this time, YJ102 was dissolved in DMSO and treated 30 minutes before LPS treatment.
(§3) To confirm the effect of YJ102 on the expression of inflammatory factors in the bladder after spinal cord injury, the expression of inflammatory cytokines and chemokines, COX-2, iNOS, IL-6, IL-1β, MIP-1α, MIP-1β, MIP-2α, and Gro-α in bladder tissue was confirmed by RT-PCR analysis and Western blot analysis using the primers in Table 2 above. In addition, even in the Raw 264.7 cell line, the expression was verified by RT-PCR analysis.

The nature of data set [1]: Observation of sedation as a side effect at high doses. The class given is in vivo, rats. The following applies: 100 mg/kg.
For the next data set, the system named is ZO-1 and occludin. In words: Urothelial tight junction proteins in bladder after SCI (Western blot, immunofluorescence). The class given is in vivo, Sprague-Dawley rats. From the text: When bladder dysfunction occurred due to spinal cord injury, cystitis, etc., a decrease in tight junction protein in the urothelium in contact with urine occurred, which increased the permeability of the bladder wall to introduce the harmful substances into the tissue, and caused the death of the urothelium serving as a barrier, and an increase in inflammatory response in the bladder. In order to determine what effect the compound YJ102 of the present disclosure had on these pathological processes, the expression of tight junction proteins ZO-1 and occludin was confirmed by Western blot analysis and immunofluorescence staining, and the introduction of neutrophils and macrophages into the bladder was confirmed by immunofluorescence staining. Specifically, the cut bladder tissue sections were frozen in liquid nitrogen, ground in a mortar and pestle to be completely lysed, and homogenized by adding Lysis Buffer [50 mM Tris-HCl (pH 7.4), 150 mM NaCl, 2 mM MgCl2, 0.1% NP40]. The homogenized tissue sections were transferred to a microcentrifuge tube, rock at 4°C for 20 minutes, and then centrifuged at 25,000 × g for 10 minutes. The supernatant was transferred to a new microcentrifuge, the protein concentrations were measured using a BCA kit, and then samples for Western blot were prepared by adding a 1X sample buffer and boiling for 5 minutes. For Western blot, the same amounts of proteins were loaded onto SDS-PAGE, electrophored, and then transferred to a nitrocellulose membrane, reacted with primary antibodies Occludin (Invitrogen), ZO-1 (Invitrogen), ED-1 (Serotec), and β-actin (Sigma), and then blotted with secondary antibodies. In addition, for immunofluorescence staining, 10 µm-thick bladder tissue sections were treated with primary antibodies ZO-1 (Invitrogen), Occludin (Invitrogen), MPO (DAKO), and ED-1 (Serotec), respectively, and reacted according to a manufacturer's protocol, and then color-developed with secondary antibodies (Jackson immunoresearh).

The next data set has as its system proNGF. In words: NGF/proNGF expression in bladder after SCI (RT-PCR, Western blot). In kind it is in vivo, Sprague-Dawley rats. The following applies: bladder tissue after spinal cord injury. The procedure: as §2
Another data set has as its system inflammatory factors. Kind of data set: Inflammatory cytokine and chemokine expression in bladder after SCI (RT-PCR, Western blot). In kind it is in vivo, Sprague-Dawley rats. Particulars: bladder tissue after spinal cord injury.
Description: as §3

For data set [2], the system named is traumatic spinal cord injury (SCI) model. Kind of data set: Urinary function analysis in SCI model (residual urine volume, UBFS, bladder size and weight). In kind it is in vivo, Sprague-Dawley rats. As to the method:
To be used as a central nerve injury animal model, a traumatic spinal cord injury (SCI) model was prepared (FIG. 1A). Specifically, 230 to 250 g of male adult Sprague-Dawley rats were anesthetized by intraperitoneal injection of chloral hydrate (500 mg/kg), and then the back and neck regions were shaved, and the spinal cord under the back and neck regions was exposed without damaging the dura mater, and a laminectomy was performed at T9 to T10 levels. To stabilize the spine, the spinous processes of T8 and T11 were fixed, and the spine was damaged by free-falling a 10 g weight from a height of 25 mm using an NYU impactor onto the back surface of the exposed spinal cord and then the rats were left in a temperature and humidity-controlled chamber overnight while covering the muscles and skin. After surgery, the rats were subcutaneously injected with a supplement solution (5 ml, lactated ringer) and injected with antibiotics (gentamicin, 5 mg/kg, intramuscular injection) once daily for 5 days. The body weight, remaining food, and the weight of water were confirmed and recorded for all animals, and the bladder was emptied twice daily by passive bladder massage until reflex micturition was established. At this time, a Sham group was a group that was subjected to only laminectomy without damage.
In order to confirm the effect of YJ102 (Chemical Formula 1), a compound of the present disclosure, on urinary disturbances caused by spinal cord injury, immediately after preparing the traumatic spinal cord injury (SCI) model (FIG. 1A) prepared in Example 1 above, YJ102 was dissolved in DMSO, methyl pyrrolidinone, and water (1 : 1.5 : 1) and administered intraperitoneally at 5 mg/kg, and then intraperitoneally administered at 24-hour intervals for 7 days from the next day. Thereafter, the effect of improving bladder functions was analyzed through a residual urine volume test and a urinary bladder function score (UBFS). At this time, a Vehicle group was administered with the same amount of a solution of DMSO, methyl pyrrolidinone, and water. Specifically, in order to determine the amount of urine remaining in the bladder after spinal cord injury, bladder extrusion was performed twice a day by applying pressure to the central bottom portion of the lower abdomen using the index and middle fingers to empty the bladder, and the expelled urine was collected in a catheter and its volume was recorded. […]

Where [3] appears, read: day 1 after spinal cord injury (SCI 1d), Western blot.

`CCc1ccc(N(C(=O)COC)c2nc3cc(Cl)ccc3o2)cc1` [YJ102]: in the data set with JMJD3, the “demethylation activation of H3K27Me3” value is reported as “significantly inhibited” and the “expression of JMJD3” value is reported as “significantly inhibited”. Besides, in the data set with JAK/STAT3 pathway, the “phosphorylation of JAK2” value is recorded as “significantly reducing” and the “phosphorylation of STAT3” value was “significantly reducing”. Moreover, in the data set with mTOR pathway, the “activity of S6” value is “inhibiting” and the “activity of p70S6kinase” value is “inhibiting”. The “mRNA levels of IL-1β, TNF-α, IL-6, iNOS, and COX-2” value in the data set with Raw 264.7 cell line is “significantly reduced”. In addition, the “sedation as a side effect” value in data set [1] is reported as “not observed”. Further, the “reduction in Occludin in the urothelium” value in the data set on ZO-1 and occludin (after spinal cord injury, immunofluorescence staining) is listed as “inhibited”. Moreover, in the data set on ZO-1 and occludin (setting [3]), the “reduction of the amount of Occludin” value was “significantly inhibited” and the “reduction of the amount of ZO-1” value is “significantly inhibited”. Besides, in the data set on proNGF (RT-PCR), the “NGF mRNA expression” value was “significantly inhibited”. In the data set with proNGF (Western blot), the proNGF production entry is reported as “significantly inhibited”. The “expression of COX-2, iNOS, IL-6, IL-1β, MIP-1α, MIP-1β, MIP-2α, and Gro-α” value with inflammatory factors was “significantly reduced”. Further, in data set [2] (5 mg/kg intraperitoneally), the bladder size result is reported as “significantly reduced” and the bladder weight result is reported as “significantly reduced”. The residual urine volume entry in [2] (5 mg/kg intraperitoneally at 24-hour intervals, vs Veh group, from the first day of administration) is “significantly reduced”. Further, the “bladder function restoration using the UBFS” value in data set [2] (5 mg/kg intraperitoneally, vs Vehicle group on day 3 and day 7 after spinal cord injury) is on record as “significantly increased”.
